From patent US6479435B1, “Diaryl ethers and processes for their preparation and herbicidal and desiccant compositions containing them” (ISK Americas Incorporated, priority 1997, dated 2002)

Key:
Format in all cases: in vivo
[1] = system: lambsquarters (Chenopodium album, CHEAL); test: Pre-emerge greenhouse herbicide test, phytotoxicity rating; conditions: Chenopodium album, pre-emergence, 336 h, 14 days after application, rating scale 0-100
Outline: (§1)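 Seeds sown in sandy loam mix one day before track-sprayer application of compounds in acetone at 125–1000 g ai/ha (187 l/ha), then surface-watered to incorporate and bottom-watered. Visual rating 14 days after application on a 0–100 scale (0 = no damage, 100 = all plants dead).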

[2] = system: ivyleaf morningglory (Ipomoea hederacea, IPOHE); test: as above; conditions: Ipomoea, pre-emergence, 336 h, 14 days after application, rating scale 0-100
Outline: as §1

[3] = system: large crabgrass (Digitaria sanguinalis, DIGSA); test: as above; conditions: Digitaria sanguinalis, pre-emergence, 336 h, 14 days after application, rating scale 0-100
Outline: as §1

[4] = system: sicklepod (Cassia obtusifolia, CASOB); test: as above; conditions: Senna obtusifolia, pre-emergence, 336 h, 14 days after application, rating scale 0-100
Outline: as §1

[5] = system: redroot pigweed (Amaranthus retroflexus, AMARE); test: as above; conditions: Amaranthus retroflexus, pre-emergence, 336 h, 14 days after application, rating scale 0-100
Outline: as §1

[6] = system: velvetleaf (Abutilon theophrasti, ABUTH); test: as above; conditions: Abutilon theophrasti, pre-emergence, 336 h, 14 days after application, rating scale 0-100
Outline: as §1

[7] = system: lambsquarters (Chenopodium album, CHEAL); test: Post-emerge greenhouse herbicide test, phytotoxicity rating; conditions: Chenopodium album, post-emergence, 336 h, 14 days after application, scale 0-100
Outline: (§2)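 Compounds in acetone with 0.25% v/v non-ionic surfactant were track-sprayed at 187 l/ha over plants at the 2-3 leaf stage, at 63 to 1000 g ai/ha. Pots were bottom-watered. Injury was scored visually 14 days later on a 0-100 scale, where 0 is no damage and 100 is complete plant death.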

[8] = system: ivyleaf morningglory (Ipomoea hederacea, IPOHE); test: as above; conditions: Ipomoea, post-emergence, 336 h, 14 days after application, scale 0-100
Outline: as §2

[9] = system: large crabgrass (Digitaria sanguinalis, DIGSA); test: as above; conditions: Digitaria sanguinalis, post-emergence, 336 h, 14 days after application, scale 0-100
Outline: as §2

[10] = system: green foxtail (Setaria viridis, SETVI); test: as above; conditions: Setaria viridis, post-emergence, 336 h, 14 days after application, scale 0-100
Outline: as §2

[11] = system: sicklepod (Cassia obtusifolia, CASOB); test: as above; conditions: Senna obtusifolia, post-emergence, 336 h, 14 days after application, scale 0-100
Outline: as §2

[12] = system: redroot pigweed (Amaranthus retroflexus, AMARE); test: as above; conditions: Amaranthus retroflexus, post-emergence, 336 h, 14 days after application, scale 0-100
Outline: as §2

[13] = system: Johnsongrass (Sorghum halepense, SORHA); test: as above; conditions: Sorghum halepense, post-emergence, 336 h, 14 days after application, scale 0-100
Outline: as §2

[14] = system: velvetleaf (Abutilon theophrasti, ABUTH); test: as above; conditions: Abutilon theophrasti, post-emergence, 336 h, 14 days after application, scale 0-100
Outline: as §2

[15] = system: barnyardgrass (Echinochloa crusgalli, ECHCG); test: as above; conditions: Echinochloa crus-galli, post-emergence, 336 h, 14 days after application, scale 0-100
Outline: as §2

Q: `Nn1c(C(F)(F)F)cc(=S)n(-c2cc(Oc3ccc(Cl)cn3)c(Cl)cc2F)c1=O` [Compound 9-28, 1-amino-3-[4-chloro-2-fluoro-5-(5-chloro-2-pyridyloxy)phenyl]-6-trifluoromethyl-1,2,3,4tetrahydro-2-oxo-4-thioxopyrimidine] was tested. Which pest or weed control at 125 g/ha ([1]; Rate 125 g al/ha) did it give?
A: The pest or weed control at 125 g/ha was 100%.

Q: And the pest or weed control at 500 g/ha ([1]; Rate 500 g al/ha)?
A: Its pest or weed control at 500 g/ha is 100%.

Q: What about the pest or weed control at 125 g/ha ([2]; Rate 125 g al/ha) of the same compound?
A: Its pest or weed control at 125 g/ha is 40%.

Q: And the pest or weed control at 500 g/ha ([2]; Rate 500 g al/ha)?
A: The pest or weed control at 500 g/ha was 70%.

Q: And the pest or weed control at 125 g/ha ([3]; Rate 125 g al/ha)?
A: The pest or weed control at 125 g/ha was 70%.

Q: And the pest or weed control at 500 g/ha ([3]; Rate 500 g al/ha)?
A: The pest or weed control at 500 g/ha was 100%.

Q: And the pest or weed control at 125 g/ha ([4]; Rate 125 g al/ha)?
A: The pest or weed control at 125 g/ha was 50%.

Q: What about the pest or weed control at 500 g/ha ([4]; Rate 500 g al/ha) of the same compound?
A: The pest or weed control at 500 g/ha was 50%.

Q: What about the pest or weed control at 125 g/ha ([5]; Rate 125 g al/ha) of the same compound?
A: Its pest or weed control at 125 g/ha is 100%.

Q: What about the pest or weed control at 500 g/ha ([5]; Rate 500 g al/ha) of the same compound?
A: Its pest or weed control at 500 g/ha is 100%.

Q: What about the pest or weed control at 125 g/ha ([6]; Rate 125 g al/ha) of the same compound?
A: The pest or weed control at 125 g/ha was 100%.

Q: What about the pest or weed control at 500 g/ha ([6]; Rate 500 g al/ha) of the same compound?
A: Its pest or weed control at 500 g/ha is 100%.

Q: What about the pest or weed control at 63 g/ha ([7]; rate 63 g ai/ha) of the same compound?
A: Its pest or weed control at 63 g/ha is 80%.

Q: What about the pest or weed control at 500 g/ha ([7]; rate 500 g ai/ha) of the same compound?
A: Its pest or weed control at 500 g/ha is 100%.

Q: And the pest or weed control at 63 g/ha ([8]; rate 63 g ai/ha)?
A: The pest or weed control at 63 g/ha was 95%.

Q: What about the pest or weed control at 500 g/ha ([8]; rate 500 g ai/ha) of the same compound?
A: Its pest or weed control at 500 g/ha is 100%.

Q: And the pest or weed control at 63 g/ha ([9]; rate 63 g ai/ha)?
A: The pest or weed control at 63 g/ha was 0%.

Q: And the pest or weed control at 500 g/ha ([9]; rate 500 g ai/ha)?
A: Its pest or weed control at 500 g/ha is 0%.

Q: And the pest or weed control at 63 g/ha ([10]; rate 63 g ai/ha)?
A: The pest or weed control at 63 g/ha was 25%.

Q: And the pest or weed control at 500 g/ha ([10]; rate 500 g ai/ha)?
A: Its pest or weed control at 500 g/ha is 50%.

Q: What about the pest or weed control at 63 g/ha ([11]; rate 63 g ai/ha) of the same compound?
A: The pest or weed control at 63 g/ha was 10%.

Q: And the pest or weed control at 500 g/ha ([11]; rate 500 g ai/ha)?
A: The pest or weed control at 500 g/ha was 50%.

Q: What about the pest or weed control at 63 g/ha ([12]; rate 63 g ai/ha) of the same compound?
A: Its pest or weed control at 63 g/ha is 90%.

Q: What about the pest or weed control at 500 g/ha ([12]; rate 500 g ai/ha) of the same compound?
A: Its pest or weed control at 500 g/ha is 100%.

Q: What about the pest or weed control at 63 g/ha ([13]; rate 63 g ai/ha) of the same compound?
A: Its pest or weed control at 63 g/ha is 0%.

Q: What about the pest or weed control at 500 g/ha ([13]; rate 500 g ai/ha) of the same compound?
A: Its pest or weed control at 500 g/ha is 30%.

Q: And the pest or weed control at 63 g/ha ([14]; rate 63 g ai/ha)?
A: The pest or weed control at 63 g/ha was 90%.

Q: And the pest or weed control at 500 g/ha ([14]; rate 500 g ai/ha)?
A: The pest or weed control at 500 g/ha was 100%.

Q: And the pest or weed control at 63 g/ha ([15]; rate 63 g ai/ha)?
A: Its pest or weed control at 63 g/ha is 0%.

Q: What about the pest or weed control at 500 g/ha ([15]; rate 500 g ai/ha) of the same compound?
A: The pest or weed control at 500 g/ha was 10%.
